Measurements from patent publication US4544740A, “Process for the preparation of 5-(2-bromovinyl)-uridine” (priority 1981, dated 1985).
≈ marks a conversion by molar mass, not a printed value. Where “and” joins values, the source holds several entries; their conditions need not be identical. Identical values can stand only once. Entries after “also recorded” stand apart in the source; their conditions may differ. Like-named read-outs stand apart in the source and are kept apart here.

Columns and labels:
[1] = tested on: Herpes simplex type 1; experiment: Effect of nucleoside analogues on virus multiplication in cell cultures at concentrations of CTo: Herpes simplex type 1 in HeLa cell culture; assay type: cell-based, Herpes simplex virus type 1
Description: The testing of antiviral activity was carried out according to the following considerations:
According to the literature the major part of antiviral nucleoside analogues is presumed to exert its "antiviral potency" by interfering with the functioning of the host cell which as a result fails to promote intracellular virus multiplication (it is a well known fact that virus multiplication requires a well functioning host cell).
Effect of nucleoside analogues on virus multiplica-
tion in cell cultures at concentrations of CTo
^1 = type 1 in HeLa cell culture

[2] = tested on: type 1 Herpes simplex virus; experiment: Inhibitory effect of nucleoside analogues on multiplication of type 1 Herpes simplex in HeLa cell culture (virus titer, TCID50); assay type: cell-based, Herpes simplex virus type 1; conditions: for log TCID50, average: average of individual experiments; for Δ log TCID50, average / Δ log TCID50: difference from control; for antiviral (anti-herpes) effect in words: in vitro, tissue culture
Text: (§1) A method was developed for the testing of the antiviral activity of various drugs in solution which is suitable for the exact, sensitive and objective in vitro assay of drug activity exerted on the cells and tissues of both warm-blooded animals and men [Toxicology 16, 59 (1980)]. The method is also suitable for calculating from the test data the highest concentration of the test drug in the tissue culture medium which is not impairing the tissue yet (CTo).
The difference in the logarithm of virus titers may be considered the objective indicator of the rate of inhibition of virus multiplication.

[3] = Cytotoxicity of nucleoside analogues in HeLa cell cultures; assay type: cell-based; conditions: human, hela cells
Text: (§2) Cytotoxicity of nucleoside analogues at concentra-
(§3) tions of CTo and CT50 in various cell cultures in […]

[4] = Cytotoxicity of nucleoside analogues in RK-13 cell cultures; assay type: cell-based; conditions: rabbit, rk-13 cells
Text: as §2, §3

[5] = Cytotoxicity of nucleoside analogues in BHK-21 cell cultures; assay type: cell-based; conditions: hamster, bhk-21 cells
Text: as §2, §3

[6] = Cytotoxicity of nucleoside analogues in Vero cell cultures; assay type: cell-based; conditions: monkey, vero cells
Text: as §2, §3

[7] = Water solubility; assay type: physicochemical; conditions: i.v. trial limited
[8] = tested on: tissue culture; experiment: Comparative toxicity in tissue culture
Text: as §1

[9] = tested on: mice
Description: Solvent: 20 percent aqueous dimethylsulfoxide
Acute toxicity after a single dose
/measured after 24 hours/
Dose Number of dead/treated animals

[10] = tested on: Herpes simplex virus; conditions: literature; cited from earlier work
[11] = individual experiments, HeLa, concentration of CTo
[12] = read-out: CT50 (the source's name) (converted)

Which “Effect on virus multiplication, Herpes simpl.” value [1] does the source give for `O=c1[nH]c(=O)n([C@@H]2O[C@H](CO)[C@@H](O)[C@H]2O)cc1/C=C/Br` [A, (E)-5-(2-Bromovinyl)-uridine] here?
The value was “++++”.

And the “log TCID50, average” value ([2]; HeLa, concentration of CTo)?
Its value is 2.66.

And the “Δ log TCID50, average” value ([2]; HeLa, concentration of CTo)?
The value was 3.16.

And the “antiviral (anti-herpes) effect in words” value ([2]; listed as (E)-5-(2-Bromovinyl)-uridine)?
Its value is “very active in inhibiting the multiplication of type 1 Herpes simplex virus”.

What about the “antiviral (anti-herpes) effect in words” value ([2]; listed as (E)-5-(2-bromovinyl)-uridine) of the same molecule?
Its value is “marked antiviral effect in vitro; also recorded: significantly reduced”.

And the “antiviral (anti-herpes) effect in words” value ([2]; listed as ribonucleoside of (E)-5-(2-bromovinyl)-uracil base)?
The value was “similarly high anti-herpes potency”.

What about the “log TCID50” value [2, 11] of the same molecule?
Its value is 2.77 and 2.5 and 3.0 and 2.33.

And the “Δ log TCID50” value [2, 11]?
Its value is 3.23 and 3.33 and 3.25 and 3.0 and 3.16 and 3.17.

What about the CC50 [3] of the same molecule?
The CC50 was 398 µg/mL (≈ 1140 µM).

And the MNTC [3]?
The MNTC was 100 µg/mL.

What about the CC50 [4] of the same molecule?
The CC50 was 501 µg/mL (≈ 1440 µM).

What about the MNTC [4] of the same molecule?
Its MNTC is 39.8 µg/mL.

What about the CC50 [5] of the same molecule?
Its CC50 is 501 µg/mL (≈ 1440 µM).

What about the MNTC [5] of the same molecule?
Its MNTC is 126 µg/mL.

And the CC50 [6]?
Its CC50 is 398 µg/mL (≈ 1140 µM).

What about the MNTC [6] of the same molecule?
Its MNTC is 100 µg/mL.

What about the water solubility [7] of the same molecule?
Its water solubility is “poor water solubility”.

What about the “effect on cells and tissues used for culturing” value [8] of the same molecule?
The value was “without impairing the cells and tissues used for culturing”.

What about the “Number of dead/treated animals” value ([9]; mouse, in vivo, 1000 mg/kg) of the same molecule?
Its value is 0/5.

What about the “Number of dead/treated animals” value ([9]; mouse, in vivo, 1500 mg/kg) of the same molecule?
The value was 0/5.

And the “Number of dead/treated animals” value ([9]; mouse, in vivo, ip, 500 mg/kg)?
The value was 0/5.

And the “Number of dead/treated animals” value ([9]; mouse, in vivo, ip, 750 mg/kg)?
The value was 0/5.

What about the “Number of dead/treated animals” value ([9]; mouse, in vivo, ip, 1000 mg/kg) of the same molecule?
The value was 4/5.

What about the “Number of dead/treated animals” value ([9]; mouse, in vivo, iv, 300 mg/kg) of the same molecule?
Its value is 0/5.

What does the source list for `O=c1[nH]c(=O)n([C@H]2C[C@H](O)[C@@H](CO)O2)cc1/C=C/Br` [B, (E)-5-(2-bromovinyl)-2'-deoxy-uridine, reference compound]?
Effect on virus multiplication, Herpes simpl. [1]: ++++; log TCID50, average ([2]; HeLa, concentration of CTo): 2.26; Δ log TCID50, average ([2]; HeLa, concentration of CTo): 3.53; antiviral (anti-herpes) effect in words [2]: marked antiviral effect in vitro; Δ log TCID50 [2, 11]: 3.33 and 3.84 and 3.78 and 3.17; MNTC ([3]; HeLa, highest concentration not impairing the tissue, read-out: CTo (converted)): 39.8 µg/mL; CC50 [3, 12]: 251 µg/mL (≈ 754 µM); MNTC ([4]; RK-13, highest concentration not impairing the tissue, read-out: CTo (converted)): 20 µg/mL; CC50 [4, 12]: 794 µg/mL (≈ 2380 µM); MNTC ([5]; BHK-21, highest concentration not impairing the tissue, read-out: CTo (converted)): 316 µg/mL; CC50 [5, 12]: 794 µg/mL (≈ 2380 µM); MNTC ([6]; Vero, highest concentration not impairing the tissue, read-out: CTo (converted)): 39.8 µg/mL; CC50 [6, 12]: 316 µg/mL (≈ 949 µM); effect on cells and tissues used for culturing ([8]; at concentrations as low as CTo): without impairing the cells and tissues used for culturing; Number of dead/treated animals ([9]; i.p., 500 mg/kg single dose, 24 hours): 0/5; Number of dead/treated animals ([9]; i.p., 750 mg/kg single dose, 24 hours): 2/5; Number of dead/treated animals ([9]; i.p., 1000 mg/kg single dose (aqueous suspension), 24 hours): 5/5; Number of dead/treated animals ([9]; i.v., 300 mg/kg single dose, 24 hours): 1/5; Number of dead/treated animals ([9]; per os, 1000 mg/kg single dose (aqueous suspension), 24 hours): 0/5; Number of dead/treated animals ([9]; per os, 1500 mg/kg single dose (aqueous suspension), 24 hours): 0/5; antiviral / anti-herpes activity in words [10]: marked anti-herpes potency

Which results are given for `O=c1[nH]c(=O)n([C@H]2C[C@H](O)[C@@H](CO)O2)cc1I` [C, 5iodo-2deoxy-uridine]?
CC50 [3]: 20 µg/mL (≈ 56.3 µM); MNTC [3]: 0.0398 µg/mL; CC50 [4]: 79.4 µg/mL (≈ 224 µM); MNTC [4]: 5.01 µg/mL; CC50 [5]: 6.31 µg/mL (≈ 17.8 µM); MNTC [5]: 0.1 µg/mL; CC50 [6]: 39.8 µg/mL (≈ 112 µM); MNTC [6]: 31.6 µg/mL

Which CC50 [3] does the source give for `Nc1nc(=O)n([C@H]2C[C@H](O)[C@@H](CO)O2)cc1I` [D, 5iodo-2deoxy-cytidine] here?
The CC50 was 7.94 µg/mL (≈ 22.5 µM).

And the MNTC [3]?
Its MNTC is 0.01 µg/mL.
